Like-named read-outs stand apart in the source and are kept apart here.

In series [1] the test system is cells from rabbit cornea (ATCC CCL 60). Description: Inhibition of intracellular accumulation of sorbitol in rabbit cornea cells. The format is cell-based. The note with it: Oryctolagus cuniculus, read-out: INHIBITION, IC50 Sorbitol Accumulation. Here is the method: For this assay, cells from rabbit cornea (ATCC CCL 60) were used as previously described^23. In summary, 10×10^6 cells were incubated in 2.5 ml of Minimum Essential Medium (JRH Biosciences), 0.5% foetal calf serum and 50 mM glucose for 16 h at 37° C. in presence of 5% CO2. Compounds under study were added in DMSO whose final concentration was 1%. The sorbitol accumulated in the cells was extracted by lysis with 8% perchloric acid and neutralised with 2N KOH^24. Sorbitol quantitation was carried out using a calorimetric test (D-Sorbitol/Xylitol, Boehringer Mannheim).

Series [2] has as its target T1, Human recombinant aldose reductase (Homo sapiens, UniProt P15121).
T1 construct: made in house; host or cells: Sf9 insect cells (Spodoptera frugiperda) infected with recombinant baculovirus AcAR
Description: Inhibition of human recombinant aldose reductase (NADPH disappearance at 340 nm). In kind it is biochemical. Here is the method:
Human recombinant aldose reductase was obtained and purified as previously described^21 with slight modifications. Briefly, Sf9 insect cells (Spodoplera frugiperda, from Pharmingen) were cultured in Grace's medium (Gibco) at 27° C. Then, cultures were infected with the purified recombinant baculovirus AcAR^22 that was kindly provided by Dr. C. Nishimura (National Children's Medical Research Center, Tokyo, Japan). The enzyme released into the culture medium was purified by affinity chromatography (Matrex Gel Orange A, Amicon). This Aldose Reductase was kept at −20° C. in 50 mM sodium phosphate, pH 7.0, 5 mM dithiotreitol and 50% glycerol.
Recombinant Aldose Reductase activity was determined according to the method previously described^21. The assay was carried out in a 96-well microtiter plate, at 37° C. in 100 mM sodium phosphate buffer, pH 6.2, 400 mM (NH4)2SO4, 0.1 mM NADPH and 5 mU/ml recombinant aldose reductase (1 mU of activity was defined as a change in absorbance of 0.012 units per minute). The reaction was initiated by addition of 10 mM glyceraldehyde and the enzymatic activity measured as the NADPH disappearance at 340 nm in a plate reader (MR-5000, Dynatech). Compounds were dissolved in DMSO (1% final concentration).

Setting [3] is: rabbit cornea cells, 50 mM glucose, 16 h at 37° C.
The mark [4] stands for this setting: recombinant enzyme, 37° C., pH 6.2, 10 mM glyceraldehyde, 0.1 mM NADPH, read-out: INHIBITION, IC50 Aldose Reductase.

Turning to `Oc1c(Oc2cc(Br)c(Br)c(Br)c2O)cc(Br)c(Br)c1Br` [A-I, 3,3′,4,4′,5,5′-hexabromo-2,2′-dihydroxy-oxydiphenyl], the melting point – broadly, the temperature, or range, at which the solid turns liquid – was 188 to 190 °C. In addition, in series [1] (setting [3]), the IC50 – broadly, the concentration needed to halve the response being measured – was 1 µM. For the same compound, the IC50 in series [2] (setting [4]) is 4 µM.
Compound `Oc1c(Br)cc(Oc2cc(Br)c(Br)c(Br)c2O)c(O)c1Br` [A-II, 3,3′,4′,5,5′-pentabromo-2,2′,4-trihydroxy-oxydiphenyl] registered a melting point of 207 to 209 °C. In addition, the IC50 in series [1] (setting [3]) worked out at 8 µM. Moreover, the IC50 in series [2] was 2 µM.
For `Oc1c(Oc2cc(Cl)c(Cl)c(Cl)c2O)cc(Cl)c(Cl)c1Cl` [A-III, 3,3′,4,4′,5,5′-Hexachloro-2,2′-dihydroxy-oxydiphenyl], the results for the IC50 in series [1] (setting [3]) and in series [2] were 0.24 µM and 5 µM, respectively.
As to `O=C(c1cc(Br)cc(Br)c1O)c1cc(Br)cc(Br)c1O` [A-IV, 3,3′,5,5′-tetrabromo-2,2′-dihydroxybenzophenone], the figures for the IC50 in series [1] (setting [3]) and in series [2] (setting [4]) were 5 µM and 4 µM, respectively.
With `Oc1c(Br)c(Br)c(-c2c(Br)c(Br)c(O)c(Br)c2Br)c(Br)c1Br` [A-V, 2,2′,3,3′,5,5′,6,6′-Octabromo-4,4′-biphenol], the melting point stood at 282 °C. The IC50 in series [1] (setting [3]) was over 12 µM. Besides, the IC50 in series [2] (setting [4]) is 1 µM.
The matching figures for `Oc1c(Cl)c(Cl)c(-c2c(Cl)c(Cl)c(O)c(Cl)c2Cl)c(Cl)c1Cl` [A-VI, 2,2′,3,3′,5,5′,6,6′-Octachloro-4,4′-biphenol]: 94 to 96 °C, 0.22 µM and 11 µM.
For `Oc1c(F)c(F)c(-c2c(F)c(F)c(O)c(F)c2F)c(F)c1F` [A-VII, 2,2′,3,3′,5,5′,6,6′-Octafluoro-4,4′-biphenol hydrate], the figures for the IC50 in series [1] (16 h) and in series [2] (setting [4]) were 0.42 µM and 0.22 µM, respectively.

(Values after patent publication US6610890B1, “Aldose reductase inhibitors and pharmaceutical compositions” (O.N.C.E.-(Organizacion Nacional De Cicgos), priority 1998, dated 2003).)
